In patent US10912780B2, “Heterocyclic compounds useful as anti-bacterial agents and method for production thereof” (Bugworks Research, Inc., priority 2017, dated 2021):
Values after ≈ are worked out from the molar mass of the structure shown. Values joined by “and” are separate entries in the source; they are usually repeats but may differ in a detail not shown here. Equal values may be shown once.

Key:
[1] = test system: A. baumannii clinical strains; assay: Antibacterial susceptibility studies (MIC50 and MIC90) with clinical strains, CLSI guidelines; type: cell-based
[2] = In vivo pharmacokinetic studies in rats, 1 hr intravenous infusion; conditions: for AUC(0-t) / AUC(0-inf) / Cmax / Tmax / clearance / half-life / Vd: male, Sprague-Dawley, rat, iv; for Vd: male SD rats, 1 h IV infusion
[3] = test system: K. pneumoniae clinical strains; assay: Antibacterial susceptibility studies (MIC50 and MIC90) with clinical strains, CLSI guidelines; type: cell-based
[4] = test system: Acinetobacter baumannii ATCC 19606; assay: Minimum Inhibitory Concentration (MIC) in LB media; type: cell-based; conditions: Acinetobacter baumannii, ATCC19606;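 also: twofold compound dilutions from DMSO stocks in LB broth microplates, overnight incubation at 37 °C, growth read by absorbance at 600 nm, with DMSO and sterility controls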
[5] = test system: E. coli clinical strains; assay: Antibacterial susceptibility studies (MIC50 and MIC90) with clinical strains, CLSI guidelines; type: cell-based
[6] = test system: Pseudomonas aeruginosa ATCC 27853; assay: Minimum Inhibitory Concentration (MIC) in LB media; type: cell-based; conditions: Pseudomonas aeruginosa, ATCC27853, read-out: Minimum Inhibitory Concentration P. aeruginosa ATCC 27853
How it was run: (§1)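 Broth microdilution in LB using cultures grown to OD600 0.8 to 1; compounds tested as twofold dilutions from a 4 mg/ml DMSO stock. Plates incubated overnight at 37° C., growth read by absorbance at 600 nm to give MIC.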

[7] = test system: Staphylococcus aureus ATCC 29213; assay: Minimum Inhibitory Concentration (MIC) in LB media; type: cell-based; conditions: Staphylococcus aureus, ATCC29213, read-out: Minimum Inhibitory Concentration S. aureus ATCC 29213
How it was run: as §1

[8] = test system: Escherichia coli ATCC 25922; assay: Minimum Inhibitory Concentration (MIC) in LB media; type: cell-based; conditions: Escherichia coli, ATCC25922, read-out: Minimum Inhibitory Concentration E. coli ATCC 25922
How it was run: as §1

[9] = test system: Klebsiella pneumoniae ATCC 13883; assay: Minimum Inhibitory Concentration (MIC) in LB media; type: cell-based; conditions: Klebsiella pneumoniae, ATCC13883, read-out: Minimum Inhibitory Concentration K. pneumoniae ATCC 13883
How it was run: as §1

[10] = test system: Enterococcus faecalis ATCC 29212; assay: Minimum Inhibitory Concentration (MIC) in LB media; type: cell-based; conditions: Enterococcus faecalis, ATCC29212, read-out: Minimum Inhibitory Concentration E. faecalis ATCC 29212
How it was run: as §1

[11] = target: E. coli DNA gyrase (Escherichia coli, UniProt P0AES4+P0AES6); assay: biochemical; conditions: supercoiling assay
[12] = test system: K. pneumoniae [ATCC13883]; assay: Neutropenic thigh infection model in rat; type: in vivo
[13] = target: E. coli topoisomerase IV (Escherichia coli, UniProt P0AFI2+P20083); assay: biochemical; conditions: decatenation assay; read-out: E. coli Topo IV IC50
[14] = Stability of IV formulation at room temperature; type: physicochemical; conditions: IV formulation in 10% L-ascorbic acid, pH~4
Experimental: Procedure: Weighed appropriate amount of the Example 15 to be tested and dissolved in 1 ml of the 10% ascorbic acid solution. (Vortex for a few seconds if the compound doesn't dissolve instantly). Sonicated the compound solution at room temperature for 5 minutes using a bath sonicator to obtain a visually clear solution. The above prepared solution was pH adjusted to pH˜4 with 1N NaOH solution (w/v) with sonication (final Formulation pH˜4).

[15] = 3 mg/kg, i.v., 1 h infusion, neutropenic rat, 10 hr post infection

E. coli topoisomerase IV, sequence (P20083 whole entry): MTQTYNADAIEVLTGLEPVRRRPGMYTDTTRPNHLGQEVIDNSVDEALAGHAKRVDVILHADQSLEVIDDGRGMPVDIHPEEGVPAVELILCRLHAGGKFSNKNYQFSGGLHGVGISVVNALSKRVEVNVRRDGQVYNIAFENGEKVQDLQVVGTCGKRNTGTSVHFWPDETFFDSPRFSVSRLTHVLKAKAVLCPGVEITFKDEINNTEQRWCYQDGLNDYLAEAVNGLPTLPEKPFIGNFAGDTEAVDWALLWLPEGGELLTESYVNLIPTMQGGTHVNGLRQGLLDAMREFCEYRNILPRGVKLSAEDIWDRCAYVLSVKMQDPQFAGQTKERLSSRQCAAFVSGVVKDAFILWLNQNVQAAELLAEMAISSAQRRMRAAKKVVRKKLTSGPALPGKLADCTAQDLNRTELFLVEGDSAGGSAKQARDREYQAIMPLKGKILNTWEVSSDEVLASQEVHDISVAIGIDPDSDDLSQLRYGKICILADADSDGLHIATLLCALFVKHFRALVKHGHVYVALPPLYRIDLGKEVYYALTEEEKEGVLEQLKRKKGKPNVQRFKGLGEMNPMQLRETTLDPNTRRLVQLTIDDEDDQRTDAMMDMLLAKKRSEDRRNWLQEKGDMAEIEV
E. coli topoisomerase IV, sequence (P0AFI2 whole entry): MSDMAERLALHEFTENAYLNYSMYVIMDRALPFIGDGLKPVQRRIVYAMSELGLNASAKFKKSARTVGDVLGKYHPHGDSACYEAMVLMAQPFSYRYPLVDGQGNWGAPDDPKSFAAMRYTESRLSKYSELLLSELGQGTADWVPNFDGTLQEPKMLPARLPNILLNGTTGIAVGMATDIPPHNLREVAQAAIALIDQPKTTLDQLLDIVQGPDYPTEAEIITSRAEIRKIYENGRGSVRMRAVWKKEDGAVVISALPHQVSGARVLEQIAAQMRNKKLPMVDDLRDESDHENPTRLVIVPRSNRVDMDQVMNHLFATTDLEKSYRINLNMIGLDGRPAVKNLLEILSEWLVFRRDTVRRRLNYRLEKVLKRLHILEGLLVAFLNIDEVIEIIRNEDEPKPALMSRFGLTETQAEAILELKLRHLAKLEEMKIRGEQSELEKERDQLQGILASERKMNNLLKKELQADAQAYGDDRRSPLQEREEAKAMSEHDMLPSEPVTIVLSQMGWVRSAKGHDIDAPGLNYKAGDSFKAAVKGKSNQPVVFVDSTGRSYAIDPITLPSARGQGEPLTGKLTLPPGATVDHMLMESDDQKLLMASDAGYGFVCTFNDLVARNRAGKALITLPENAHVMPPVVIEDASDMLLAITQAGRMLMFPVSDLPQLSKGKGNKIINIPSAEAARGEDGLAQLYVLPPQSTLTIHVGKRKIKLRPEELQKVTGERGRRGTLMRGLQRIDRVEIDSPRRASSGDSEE
E. coli DNA gyrase, sequence (P0AES4 whole entry, one chain of several): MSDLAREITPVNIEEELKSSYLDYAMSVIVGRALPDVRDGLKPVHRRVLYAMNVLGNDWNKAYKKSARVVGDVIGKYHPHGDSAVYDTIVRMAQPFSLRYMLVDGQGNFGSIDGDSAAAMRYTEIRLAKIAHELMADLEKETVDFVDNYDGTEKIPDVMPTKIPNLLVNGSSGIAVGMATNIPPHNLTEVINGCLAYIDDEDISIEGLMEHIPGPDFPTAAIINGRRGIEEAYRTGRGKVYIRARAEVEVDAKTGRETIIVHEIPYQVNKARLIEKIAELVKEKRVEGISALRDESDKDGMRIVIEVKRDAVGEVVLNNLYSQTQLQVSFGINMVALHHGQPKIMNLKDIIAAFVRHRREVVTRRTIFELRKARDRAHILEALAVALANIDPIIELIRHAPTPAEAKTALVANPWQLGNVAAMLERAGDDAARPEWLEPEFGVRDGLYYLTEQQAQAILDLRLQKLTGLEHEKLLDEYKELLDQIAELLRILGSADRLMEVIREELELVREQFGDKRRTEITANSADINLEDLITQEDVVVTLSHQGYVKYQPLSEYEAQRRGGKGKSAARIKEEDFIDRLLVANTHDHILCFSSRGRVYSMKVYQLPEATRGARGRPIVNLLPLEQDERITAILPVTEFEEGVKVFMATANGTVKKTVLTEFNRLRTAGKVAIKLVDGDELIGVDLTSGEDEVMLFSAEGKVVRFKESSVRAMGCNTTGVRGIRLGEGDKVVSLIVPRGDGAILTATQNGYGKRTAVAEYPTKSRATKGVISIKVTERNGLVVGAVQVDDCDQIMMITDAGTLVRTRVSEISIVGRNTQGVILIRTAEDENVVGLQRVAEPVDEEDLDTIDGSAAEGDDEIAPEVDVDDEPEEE

Cn1c(=O)ccc2ccc(F)c(CCNC[C@H]3CN(c4cnc5c(n4)NC(=O)CO5)C(=O)O3)c21 [Example 15, (S)-6-(5-(((2-(7-fluoro-1-methyl-2-oxo-1,2-dihydroquinolin-8-yl)ethyl)amino)methyl)-2-oxooxazolidin-3-yl)-2H-pyrazino[2,3-b][1,4]oxazin-3(4H)-one]
MIC ATCC19606 ([1]; A. baumannii reference strain ATCC19606, no unit in this line): 0.06 µg/mL (≈ 0.128 µM)
MIC50 ([1]; Acinetobacter baumannii): 0.06 µg/mL (≈ 0.128 µM)
MIC90 ([1]; Acinetobacter baumannii): 0.125 µg/mL (≈ 0.267 µM)
Minimum ([1]; lowest MIC among A. baumannii clinical strains (169 strains; Example 15: 132), no unit in this line): 0.03
clearance (in words) ([2]; SD rats, 1 hr IV infusion): moderate
half life (in words) ([2]; SD rats, 1 hr IV infusion): short
volume of distribution (in words) ([2]; SD rats, 1 hr IV infusion): low
AUC and Cmax versus dose (in words) ([2]; SD rats, IV infusion at 5, 10, 30 & 100 mg/kg): Dose proportional increase
AUC(0-t) ([2]; in vivo): 104000 ± 7300 ng·h/mL
AUC(0-inf) ([2]; in vivo, 30 mg/kg): 14700 ± 200 ng·h/mL
AUC(0-t) ([2]; in vivo, 30 mg/kg): 14700 ± 200 ng·h/mL
Cmax ([2]; in vivo, 30 mg/kg): 15200 ± 2200 ng/mL
Tmax ([2]; in vivo, 30 mg/kg): 1 h
clearance ([2]; in vivo, 30 mg/kg): 34 mL/min/kg
half-life ([2]; in vivo, 30 mg/kg): 0.96 ± 0.02 h
Vd ([2]; in vivo, 30 mg/kg, Vd): 2.83 ± 0.09 L/kg
Vd ([2]; in vivo, 30 mg/kg, Vss, 30 mg/kg): 0.84 ± 0.06 L/kg
AUC(0-inf) ([2]; in vivo, 100 mg/kg): 73700 ± 15300 ng·h/mL
AUC(0-t) ([2]; in vivo, 100 mg/kg): 73700 ± 15300 ng·h/mL
Cmax ([2]; in vivo, 100 mg/kg): 62600 ± 6700 ng/mL
Tmax ([2]; in vivo, 100 mg/kg): 1 h
clearance ([2]; in vivo, 100 mg/kg): 23.3 mL/min/kg
half-life ([2]; in vivo, 100 mg/kg): 4.93 ± 0.5 h
Vd ([2]; in vivo, 100 mg/kg, Vd): 9.86 ± 1.68 L/kg
Vd ([2]; in vivo, 100 mg/kg, Vss, 100 mg/kg): 0.9 ± 0.05 L/kg
AUC(0-inf) ([2]; in vivo, 150 mg/kg): 104000 ± 7300 ng·h/mL
Cmax ([2]; in vivo, 150 mg/kg): 101000 ± 146000 ng/mL
Tmax ([2]; in vivo, 150 mg/kg): 1 h
clearance ([2]; in vivo, 150 mg/kg): 24.2 mL/min/kg
half-life ([2]; in vivo, 150 mg/kg): 6.17 ± 0.42 h
Vd ([2]; in vivo, 150 mg/kg, Vd): 12.9 ± 1 L/kg
Vd ([2]; in vivo, 150 mg/kg, Vss, 150 mg/kg): 0.86 ± 0.04 L/kg
AUC(0-inf) ([2]; plasma, 5 mg/kg): 1700 ± 50 ng·h/mL
AUC(0-t) ([2]; plasma, 5 mg/kg): 1700 ± 50 ng·h/mL
Cmax ([2]; plasma, 5 mg/kg): 2400 ± 60 ng/mL
Tmax ([2]; plasma, 5 mg/kg): 0.77 ± 0.01 h
clearance ([2]; plasma, 5 mg/kg): 48.7 mL/min/kg
half-life ([2]; plasma, 5 mg/kg): 0.53 ± 0.03 h
Vd ([2]; plasma, 5 mg/kg, Vd): 2.21 ± 0.012 L/kg
Vd ([2]; plasma, 5 mg/kg, Vss, 5 mg/kg): 0.91 ± 0.05 L/kg
MIC ATCC13883 ([3]; K. pneumoniae reference strain ATCC13883, no unit in this line): 0.03 µg/mL (≈ 0.064 µM)
MIC50 ([3]; Klebsiella pneumoniae): 0.5 µg/mL (≈ 1.07 µM)
MIC90 ([3]; Klebsiella pneumoniae): 1 µg/mL (≈ 2.13 µM)
Minimum ([3]; lowest MIC among K. pneumoniae clinical strains (211 strains; Example 15: 176), no unit in this line): 0.06
MIC [4]: 0.06 µg/mL (≈ 0.128 µM)
MIC ATCC25922 ([5]; E. coli reference strain ATCC25922, no unit in this line (MIC50/MIC90 lines: μg/ml)): 0.06 µg/mL (≈ 0.128 µM)
MIC50 ([5]; Escherichia coli): 0.06 µg/mL (≈ 0.128 µM)
MIC90 ([5]; Escherichia coli): 0.25 µg/mL (≈ 0.534 µM)
Minimum ([5]; lowest MIC among E. coli clinical strains (201 strains; Example 15: 176), no unit in this line): 0.03
MIC [6]: 0.25 µg/mL (≈ 0.534 µM)
MIC [7]: ≤ 0.015 µg/mL
MIC [8]: 0.03 µg/mL (≈ 0.064 µM)
MIC [9]: 0.03 µg/mL (≈ 0.064 µM)
MIC [10]: 0.06 µg/mL (≈ 0.128 µM)
IC50 [11]: 4.6 nM
MEAN ± SD (Log 10 CFU/g thigh) [12, 15]: 4.10 ± 0.46 Log 10 CFU/g thigh
Mean Log10CFU/g thigh reduction (wrt 2 h PI control: 4.72 Log10CFU/g thigh) [12, 15]: 0.62 Log10CFU/g thigh
Mean Log10CFU/g thigh reduction (wrt 2 h PI control: 4.72 Log10CFU/g thigh) ([12]; 10 mg/kg, i.v., 1 h infusion, neutropenic rat, 10 hr post infection): 1.81 Log10CFU/g thigh
Log 10 CFU/g thigh ([12]; individual animals, 3 mg/kg, i.v., 1 h infusion, neutropenic rat, 10 hr post infection): 4.1 Log 10 CFU/g thigh and 4.56 Log 10 CFU/g thigh and 3.65 Log 10 CFU/g thigh
efficacy compared to the 2 h PI control (in words) ([12]; rat thigh model, 3 mg/kg): bacteriostatic
IC50 [13]: 10 nM
IV formulation stable at room temperature [14]: more than 24 hours
